US20140031217A1, “HERBICIDAL COMPOSITIONS COMPRISING 4-AMINO-3-CHLORO-5-FLUORO-6-(4-CHLORO-2-FLUORO-3-METHOXYPHENYL)PYRIDINE-2-CARBOXYLIC ACID OR A DERIVATIVE THEREOF AND AUXIN TRANSPORT INHIBITORS” (DOW AGROSCIENCES LLC, priority 2012, published 2014)

System: DIGSA
Experiment: Postemergence foliar-applied greenhouse weed control, DIGSA
Format: in vivo, Digitaria sanguinalis (L.) Scop.
Description: Seeds or nutlets of the desired test plant species were planted in a soil matrix prepared by mixing a loam or sandy loam soil (e.g., 28.6 percent silt, 18.8 percent clay, and 52.6 percent sand, with a pH of about 5.8 and an organic matter content of about 1.8 percent) and calcareous grit in an 80 to 20 ratio. The soil matrix was contained in plastic pots with a volume of 1 quart and a surface area of 83.6 square centimeters (cm^2). When required to ensure good germination and healthy plants, a fungicide treatment and/or other chemical or physical treatment was applied. The plants were grown for 8-22 days in a greenhouse with an approximate 14 h photoperiod which was maintained at about 29° C. during the day and 26° C. during the night. Nutrients (Peters Excel® 15-5-15 5-Ca 2-Mg and iron chelate) were applied in the irrigation solution as needed and water was added on a regular basis. Supplemental lighting was provided with overhead metal halide 1000-Watt lamps as necessary. The plants were employed for testing when they reached the first through fourth true leaf stage.
Treatments consisted of the acid or esters of 4-amino-3-chloro-5-fluoro-6-(4-chloro-2-fluoro-3-methoxy-phenyl) pyridine-2-carboxylic acid (Compound A), each formulated as an SC (suspension concentrate), and various herbicidal components alone and in combination. Forms of compound A were applied on an acid equivalent basis.
Other herbicidal components were applied on an active ingredient basis and included auxin transport inhibiting (ATI) herbicides chlorflurenol (technical material), chlorflurenol-methyl (technical material), diflufenzopyr (technical material), diflufenzopyr sodium (technical material), flurenol-methyl (technical material) and naptalam (technical material).
Treatment requirements were calculated based upon the rates being tested, the concentration of active ingredient or acid equivalent in the formulation, and a 12 mL application volume at a rate of 187 L/ha.
For treatments comprised of formulated and technical compounds, weighed amounts of the technical materials were placed individually in 25 mL glass vials and dissolved in a volume of 97:3 v/v acetone/DMSO to obtain 12× stock solutions, and measured amounts of the formulated compounds were placed individually in 25 mL glass vials and diluted in a volume of 1.5% (v/v) crop oil concentrate or water to obtain 12× stock solutions. […] Application solutions were prepared by adding an appropriate amount of each stock solution (e.g., 1 mL) and diluted to the appropriate final concentrations with the addition of an appropriate amount of an aqueous mixture of 1.5% (v/v) crop oil concentrate so that the final spray solutions contained 1.25% (v/v) crop oil concentrate. When required, additional water and/or 97:3 v/v acetone/DMSO was added to individual application solutions so that the final acetone and DMSO concentrations of the application solutions being compared were 8.1% and 0.25%, respectively.
All stock solutions and applications solutions were visually inspected for compound compatibility prior to application. Spray solutions were applied to the plant material with an overhead Mandel track sprayer equipped with an 8002E nozzle calibrated to deliver 187 L/ha over an application area of 0.503 m^2 at a spray height of 18 to 20 inches (46 to 50 cm) above average plant canopy height. Control plants were sprayed in the same manner with the solvent blank.
The treated plants and control plants were placed in a greenhouse as described above and watered by sub-irrigation to prevent wash-off of the test compounds. After approximately 3 weeks, the condition of the test plants as compared with that of the untreated plants was determined visually and scored on a scale of 0 to 100 percent where 0 corresponds to no injury or growth inhibition and 100 corresponds to complete kill. […]

COc1c(Cl)ccc(-c2nc(C(=O)OCc3ccccc3)c(Cl)c(N)c2F)c1F [Compound A Benzyl Ester]
Visual Weed Control (%) Obs (20 DAA, 4.38 gae/ha): 40%
Visual Weed Control (%) Obs (20 DAA, 8.75 gae/ha): 40%
Visual Weed Control (%) Obs (21 DAA, 17.5 gae/ha): 30%
